Key:
[1] = system: FSaIIC murine fibrosarcoma; assay: Tumor growth delay with melphalan (time to 500 mm^3); type: in vivo, C3H mice; conditions: melphalan 10 mg/kg i.p. plus 50 μl of 5 or 20 μg of ozone per ml of oxygen by tail vein injection, then 4 days; FIG. 8
Description: 8 week old male C3H mice were inoculated with 2×10^6 FSaIIC murine fibrosarcoma cells in the hind limb. When tumors reached a volume of 50 mm^3, animal were divided into 4 groups of 10 mice. Group I was untreated, Group II was administered a dose of 10 mg/kg melphalan by intraperitoneal injection. Group III was administered melphalan together with 50 μl of untreated syngeneic blood injected intramuscularly in the non-tumor bearing hind limb. Group IV was administered melphalan with 50 μl of syngeneic blood treated with 20 μl ozone/ml of oxygen. Following the initial melphalan injection, animals in Groups III and IV continued receiving intramuscular injections of 50 μl of untreated syngeneic blood, or 50 μl of syngeneic blood treated with 20 μl ozone/ml of oxygen, respectively for 4 days, one injection per day. All animals were observed until tumors attained a volume of 500 mm^3. The delay in tumor time to achieve 500 mm^3 volume is illustrated in FIG. 4.
8 week old male C3H mice were inoculated with 2×10^6 FSaIIC murine fibrosarcoma cells in the hind limb. When tumors reached a volume of 50 mm^3, animal were divided into 4 groups of 10 mice. Group I was untreated, Group II was administered a dose of 10 mg/kg melphalan by intraperitoneal injection. Group HI was administered melphalan together with an intramuscular injection of 1×10^6 syngeneic untreated mononuclear cells. […]

[2] = Tolerability of intravenous ozone in tumor bearing mice; type: in vivo, C3H mice; conditions: 50 μl of 5 or 20 μg of ozone per ml of oxygen, tail vein, 5 daily injections, with melphalan
Description: In order to stress cells in vivo, ozone at 5 μg per ml of oxygen, or 20 μg per ml of oxygen was injected directly into the tail vein of tumor bearing mice. Such injections are performed by filling a 1 cc syringe with the indicated concentration of ozone in medical grade oxygen. The gas is slowly injected into the tail vein so not to induce embolism. Due to the high solubility of oxygen and ozone in blood, embolism formation is not usually a problem.
8 week old male C3H mice were inoculated with 2×10^6 FSaIIC murine fibrosarcoma cells in the hind limb. When tumors reached a volume of 50 mm^3, animal were divided into 4 groups of 10 mice. Group I was untreated, Group II was administered a dose of 10 mg/kg melphalan by intraperitoneal injection. Group III was administered melphalan together with 50 μl of 5 μg of ozone per ml of oxygen by tail vein injection. Group IV was administered melphalan with 50 μl of 20 μg of ozone per ml of oxygen by tail vein injection. Following the initial melphalan injection, animals in Groups III and IV continued receiving intravenous injections of 50 μl of 5 μg of ozone per ml of oxygen, or 50 μl of 20 μg of ozone per ml of oxygen, respectively for 4 days, one injection per day. All animals were observed until tumors attained a volume of 500 mm^3. The delay in tumor time to achieve […] volume is illustrated in FIG. 8.

SMILES: O=[O+][O-] [intravenous ozone, ozone]
- delay in time to achieve 500 mm^3 tumor volume with melphalan [1]: increased the tumor inhibitory effects of melphalan
- tolerability [2]: well tolerated

Reference: patent US20050169944A1, “Increasing tumor oxygen content by administration of stressed cells” (priority 2002, published 2005)
